Measured values: BindingDB's records for doi:10.1016/j.bioorg.2016.07.013 (Shenyang Pharmaceutical University, 2016)

Assays:
Acetylcholinesterase = Acetylcholinesterase (Homo sapiens, UniProt P22303); experiment: AChE and BuChE Inhibition Assay; settings: pH 8
Experimental: (§1) The reaction mixture was consisted of 100 µL of the total volume.

Cholinesterase = Cholinesterase (Homo sapiens, UniProt P06276); experiment: AChE and BuChE Inhibition Assay; settings: pH 8
Experimental: as §1

Acetylcholinesterase, sequence (P22303 whole entry): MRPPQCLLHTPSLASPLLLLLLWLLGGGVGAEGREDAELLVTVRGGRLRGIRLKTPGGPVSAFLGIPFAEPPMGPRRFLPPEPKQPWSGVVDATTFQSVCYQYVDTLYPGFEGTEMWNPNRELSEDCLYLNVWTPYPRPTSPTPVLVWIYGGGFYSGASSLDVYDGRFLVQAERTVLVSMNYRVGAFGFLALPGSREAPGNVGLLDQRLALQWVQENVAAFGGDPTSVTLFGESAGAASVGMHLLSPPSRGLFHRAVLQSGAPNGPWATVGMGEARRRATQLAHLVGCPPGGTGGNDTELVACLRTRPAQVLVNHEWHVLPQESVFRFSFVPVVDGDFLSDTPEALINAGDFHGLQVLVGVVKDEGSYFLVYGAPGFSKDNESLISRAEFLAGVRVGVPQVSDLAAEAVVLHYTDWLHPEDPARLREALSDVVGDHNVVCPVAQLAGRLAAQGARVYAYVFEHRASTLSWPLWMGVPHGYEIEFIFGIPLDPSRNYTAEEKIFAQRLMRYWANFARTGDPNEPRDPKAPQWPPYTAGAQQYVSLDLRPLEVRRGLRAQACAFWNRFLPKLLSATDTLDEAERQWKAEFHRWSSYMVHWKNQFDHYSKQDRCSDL
Cholinesterase, sequence (P06276 whole entry): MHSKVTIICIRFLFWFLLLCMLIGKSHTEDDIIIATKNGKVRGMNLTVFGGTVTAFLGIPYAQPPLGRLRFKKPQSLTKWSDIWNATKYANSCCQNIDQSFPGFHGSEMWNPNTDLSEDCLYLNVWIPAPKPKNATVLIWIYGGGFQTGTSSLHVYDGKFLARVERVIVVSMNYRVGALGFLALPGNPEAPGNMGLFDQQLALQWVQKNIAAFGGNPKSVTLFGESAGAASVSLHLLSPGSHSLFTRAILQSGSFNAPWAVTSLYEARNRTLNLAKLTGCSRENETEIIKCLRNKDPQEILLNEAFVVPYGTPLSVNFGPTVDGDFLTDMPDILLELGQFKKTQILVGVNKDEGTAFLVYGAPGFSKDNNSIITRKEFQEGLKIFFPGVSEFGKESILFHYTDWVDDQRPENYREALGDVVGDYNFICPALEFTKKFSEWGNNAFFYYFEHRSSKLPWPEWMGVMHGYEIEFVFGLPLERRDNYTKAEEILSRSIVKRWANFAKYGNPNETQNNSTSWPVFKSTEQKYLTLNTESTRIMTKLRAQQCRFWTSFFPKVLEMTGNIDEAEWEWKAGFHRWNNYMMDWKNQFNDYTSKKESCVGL

| SMILES | IC50 (Acetylcholinesterase) | IC50 (Cholinesterase) |
| --- | --- | --- |
| COc1ccc2cc(C(=O)Nc3ccc(CN4CCN(C)CC4)c(C(F)(F)F)c3)c(=O)oc2c1 [7-Methoxy-N-(4-((4-methylpiperazin-1-yl)methyl)-3-(trifluoromethyl)phenyl)-2-oxo-2H-chromene-3-carboxamide (9j)] | 0.591 µM | – |
| CN1CCN(Cc2ccc(NC(=O)c3cc4ccccc4oc3=O)cc2Cl)CC1 [N-(3-chloro-4-((4-methylpiperazin-1-yl)methyl)phenyl)-2-oxo-2H-chromene-3-carboxamide (9k)] | 1.3 µM | 1.97 µM |
| COc1cccc2cc(C(=O)Nc3ccc(CN4CCN(C)CC4)c(Cl)c3)c(=O)oc12 [N-(3-chloro-4-((4-methylpiperazin-1-yl)methyl)phenyl)-8-methoxy-2-oxo-2H-chromene-3-carboxamide (9b)] | 1.22 µM | 1.77 µM |
| CCN1CCN(Cc2ccc(NC(=O)c3cc4cc([N+](=O)[O-])ccc4oc3=O)cc2Cl)CC1 [N-(3-chloro-4-((4-ethylpiperazin-1-yl)methyl)phenyl)-6-nitro-2-oxo-2H-chromene-3-carboxamide (9x)] | 0.034 µM | – |
| COc1ccc2cc(C(=O)Nc3ccc(CN4CCN(C)CC4)c(Cl)c3)c(=O)oc2c1 [N-(3-chloro-4-((4-methylpiperazin-1-yl)methyl)phenyl)-7-methoxy-2-oxo-2H-chromene-3-carboxamide (9g)] | 1.54 µM | 1.68 µM |
| CN1CCN(Cc2ccc(NC(=O)c3cc4ccccc4oc3=O)cc2C(F)(F)F)CC1 [N-(4-((4-methylpiperazin-1-yl)methyl)-3-(trifluoromethyl)phenyl)-2-oxo-2H-chromene-3-carboxamide (9o)] | 0.618 µM | – |
| CN1CCN(Cc2ccc(NC(=O)c3cc4cc(Br)ccc4oc3=O)cc2Cl)CC1 [6-Bromo-N-(3-chloro-4-((4-methylpiperazin-1-yl)methyl)phenyl)-2-oxo-2H-chromene-3-carboxamide (9u)] | 0.33 µM | 1.89 µM |
| CCN1CCN(Cc2ccc(NC(=O)c3cc4cc(Cl)ccc4oc3=O)cc2Cl)CC1 [6-Chloro-N-(3-chloro-4-((4-ethylpiperazin-1-yl)methyl)phenyl)-2-oxo-2H-chromene-3-carboxamide (9p)] | 0.222 µM | – |
| CN1CCN(Cc2ccc(NC(=O)c3cc4cc([N+](=O)[O-])ccc4oc3=O)cc2Cl)CC1 [N-(3-chloro-4-((4-methylpiperazin-1-yl)methyl)phenyl)-6-nitro-2-oxo-2H-chromene-3-carboxamide (9y)] | 0.807 µM | 1.88 µM |
| CCN1CCN(Cc2ccc(NC(=O)c3cc4ccc(OC)cc4oc3=O)cc2Cl)CC1 [N-(3-chloro-4-((4-ethylpiperazin-1-yl)methyl)phenyl)-7-methoxy-2-oxo-2H-chromene-3-carboxamide (9f)] | 0.122 µM | – |
| CCN1CCN(Cc2ccc(NC(=O)c3cc4cc(Br)ccc4oc3=O)cc2Cl)CC1 [6-Bromo-N-(3-chloro-4-((4-ethylpiperazin-1-yl)methyl)phenyl)-2-oxo-2H-chromene-3-carboxamide (9t)] | 0.12 µM | – |
| CN1CCN(Cc2ccc(NC(=O)c3cc4cc(Cl)ccc4oc3=O)cc2Cl)CC1 [6-Chloro-N-(3-chloro-4-((4-methylpiperazin-1-yl)methyl)phenyl)-2-oxo-2H-chromene-3-carboxamide (9q)] | 0.841 µM | 1.79 µM |
| CCN1CCN(Cc2ccc(NC(=O)c3cc4ccccc4oc3=O)cc2Cl)CC1 [N-(3-chloro-4-((4-ethylpiperazin-1-yl)methyl)phenyl)-2-oxo-2H-chromene-3-carboxamide (9l)] | 1.3 µM | 1.59 µM |
| COc1cccc2cc(C(=O)Nc3ccc(CN4CCN(C)CC4)c(C(F)(F)F)c3)c(=O)oc12 [8-Methoxy-N-(4-((4-methylpiperazin-1-yl)methyl)-3-(trifluoromethyl)phenyl)-2-oxo-2H-chromene-3-carboxamide (9d)] | 1.45 µM | – |
| CCN1CCN(Cc2ccc(NC(=O)c3cc4cccc(OC)c4oc3=O)cc2Cl)CC1 [N-(3-chloro-4-((4-ethylpiperazin-1-yl)methyl)phenyl)-8-methoxy-2-oxo-2H-chromene-3-carboxamide (9a)] | 0.195 µM | – |
